Assay results from US11939241B2, “Stable percarboxylic acid compositions and uses thereof” (Ecolab USA Inc., priority 2012, dated 2024).

Experiment: Quantitation of peroxide gases of decomposition (U-tube manometer)
Format: physicochemical
Method: The volume of peroxides' gases of decomposition was measured using a water filled U-tube fitted with a minimal volume tubing connected to a non-coring syringe needle. The manometer made of pyrex glass was filled partially with deionized water colored with FD&C blue dye #1 and 1,000 ppm of non-ionic surfactant. The dye allows for increased visibility of the water columns and the surfactant lowers the surface tension allowing for unbroken water columns. The manometer was also fitted with a metric ruler to allow the convenient determination of the column heights difference. Given that 1 atmosphere of pressure corresponds with […] of water column height and the limit of resolution on the column and ruler combination is about 1 mm, the signal/noise ratio approximates […].
Procedure. Four head space vials were double rinsed with the sample solution before adding 5 mL of sample solution (via Repeat Pipettor) and sealing the vials with a silicone backed PTFE septum with aluminum cap. Immediately after sealing the vials the temperature and barometric pressure were recorded. A set of water blank replicates of the same volume were also included. The sealed vials were stored for 24-48 hours at ambient temperatures inside a dark cabinet to allow for optimal gas pressure generation.
Calculations. By calibration of the U-tube water column displacement using a precision gas syringe, the water column height to gas volume ratio was calculated. Using the assumption of peroxide decay to molecular oxygen (ignoring CO2 or CO gases etc.), these values were converted to gas volumes and the loss of available oxygen in the sample was thereby calculated using the formulae below: 2 moles of RCO3H→2 moles of RCO2H+1 mole of O2(22.4 L of O2 at standard temperature and pressure) And 2 moles of H2O2→2 moles of H2O+1 mole of O2(22.4 L of O2 at standard temperature and pressure)

- Net O2 Lost (5 mL sample, sealed vial, 24-48 hours, ambient temperature): 0.017 g
- Net Gas Gen. (5 mL sample, sealed vial, 24-48 hours, ambient temperature, dark): 11.9 mL
- Rel. Loss O2 (24-48 hours, ambient temperature): 0.02% w/w, %
- Initial H2O2 (initial): 50.00 w/w, %
- Initial POAA (initial): 0.00 w/w, %
- Initial O2 (initial available oxygen): 23.53 w/w, %
Substance: Hydrogen peroxide [F]
